Test results: patent publication US12465616B2, “Methods and compositions for disrupting biofilm utilizing chitosan-derivative compounds” (SYNEDGEN, INC., priority 2009, dated 2025)

Test system: MRSA MW-2
Assay: Prophylactic activity on pigskin
Assay type: cell-based, Staphylococcus aureus
Conditions: treatment dried 1-hour, about 10^3 CFU for 1-hour; chitosan-arginine 60 μg/cm^2 in 70% ethanol (21 kDa, 29% functionalized, FIG. 24); hydrogen peroxide 3%

Structure (SMILES) | prophylactic activity, qualitative CFU recovered from treated skin surface
CCO [70% ethanol, ethanol] | no prophylactic activity
OO [hydrogen peroxide] | no prophylactic activity
